SMILES strings stand for the structures.

For this experiment, the target named is T1, estrogen receptor alpha (ESR1) in MCF7 breast cancer cells (Homo sapiens, UniProt P03372).
T1 construct: endogenous in cells; host or cells: MCF7 breast cancer cells
T1 sequence (P03372 1-595): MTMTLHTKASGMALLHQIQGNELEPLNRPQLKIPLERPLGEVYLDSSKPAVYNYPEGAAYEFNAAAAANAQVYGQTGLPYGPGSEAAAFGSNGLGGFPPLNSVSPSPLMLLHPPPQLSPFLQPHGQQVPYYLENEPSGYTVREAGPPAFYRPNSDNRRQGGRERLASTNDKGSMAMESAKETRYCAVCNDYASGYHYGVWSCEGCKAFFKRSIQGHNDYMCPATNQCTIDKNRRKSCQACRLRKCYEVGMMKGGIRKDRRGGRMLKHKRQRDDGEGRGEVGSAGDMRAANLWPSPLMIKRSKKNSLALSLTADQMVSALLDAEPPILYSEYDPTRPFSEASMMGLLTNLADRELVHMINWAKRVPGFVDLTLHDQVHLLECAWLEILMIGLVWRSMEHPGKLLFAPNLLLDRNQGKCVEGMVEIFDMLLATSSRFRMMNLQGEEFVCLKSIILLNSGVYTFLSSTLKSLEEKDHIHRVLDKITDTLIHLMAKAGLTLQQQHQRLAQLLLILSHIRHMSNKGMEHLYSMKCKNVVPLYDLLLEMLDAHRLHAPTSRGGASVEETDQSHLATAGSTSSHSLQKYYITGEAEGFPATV
As to the kind of experiment: Breast Cancer Cell ERa High Content Fluorescence Imaging Assay (F10). Type of experiment: cell-based. Conditions: 4 hours, plateau of the maximal effect, DMSO and 5 nM Fulvestrant define 0% and 100% changes in ESR1. On the procedure:
Breast Cancer Cell ERa High Content Fluorescence Imaging Assay (F10)
Cell plates were incubated at 37° C., for 4 hours. Fixation and permeabilization were carried out using a Biotek EL406 plate washer and dispenser as follows. […] Samples were incubated 30 minutes. Well contents was aspirated and 50 ul/well of Phosphate Buffered Saline (PBS) containing 0.5% w/v bovine serum albumen, 0.5% v/v Triton X-100 (Antibody Dilution Buffer) was added to each well. Samples were incubated for 30 minutes. Well contents were aspirated and washed 3 times with 100 ul/well of PBS. Immunofluorescence staining of estrogen receptor alpha (ESR1) was carried out using a Biotek EL406 plate washer and dispenser as follows. […] Samples were incubated for 2 hours at room temperature. Samples were washed 4 times with 100 ul/well of PBS. […] Samples were incubated for 2 hours at room temperature. Samples were washed 3 times with 100 ul/well of PBS using a Biotek EL406. Quantitative fluorescence imaging of ESR1 was carried out using a Cellomics Arrayscan V (Thermo). […] Channel 1 (DNA stain) was used to define the nuclear region (Circ). […] Data analysis was carried out using Genedata Screener Software, with DMSO and 5 nM Fulvestrant treated samples being used to define the 0% and 100% changes in ESR1. The “Robust Fit” method was used to define the inflexion point of curve (EC50) and the plateau of the maximal effect (Sinf).
As for `CC1=C(c2ccc(Cl)c(F)c2)C(c2ccc(OC[C@H](C)N3CC[C@@H](CF)C3)cc2)Oc2ccc(O)cc21` (stereo partly drawn) [Example 1, 3-(4-Chloro-3-fluorophenyl)-2-(4-((S)-2-((R)-3-(fluoromethyl)pyrrolidin-1-yl)propoxy)phenyl)-4-methyl-2H-chromen-6-ol], the “ER-alpha MCF7 HCS Sinf (%)” value is given as −91%.

As to `CC1=C(c2ccc(Cl)c(F)c2)C(c2ccc(OCCN3CC[C@@H](CF)C3)cc2)Oc2ccc(O)cc21` (some centres unmarked) [Example 2], the “ER-alpha MCF7 HCS Sinf (%)” value is listed as −95%.

As to `C#Cc1cc(O)cc(C2=C(C)c3cc(O)ccc3OC2c2ccc(OC[C@H](C)N3CC[C@@H](CF)C3)cc2)c1` (stereo partly drawn) [Example 3, 3-(3-Ethynyl-5-hydroxyphenyl)-2-(4-((S)-2-((R)-3-(fluoromethyl)pyrrolidin-1-yl)propoxy)phenyl)-4-methyl-2H-chromen-6-ol], the “ER-alpha MCF7 HCS Sinf (%)” value is recorded as −94%.

In the case of `CC1=C(c2cccc(F)c2F)C(c2ccc(OCCN3CC(CF)C3)cc2)Oc2ccc(O)cc21` (centres unmarked) [Example 4, 3-(2,3-Difluorophenyl)-2-(4-(2-(3-(fluoromethyl)azetidin-1-yl)ethoxy)phenyl)-4-methyl-2H-chromen-6-ol], the “ER-alpha MCF7 HCS Sinf (%)” value is −98%.

With `CC1=C(c2cccc(F)c2Cl)C(c2ccc(OCCN3CC(CF)C3)cc2)Oc2ccc(O)cc21` (centres unmarked) [Example 5], the “ER-alpha MCF7 HCS Sinf (%)” value is −98%.

Take `CC1=C(c2ccc(F)cc2C)C(c2ccc(OCCN3CC(CF)C3)cc2)Oc2ccc(O)cc21` (centres unmarked) [Example 6, 3-(4-Fluoro-2-methylphenyl)-2-(4-(2-(3-(fluoromethyl)azetidin-1-yl)ethoxy)phenyl)-4-methyl-2H-chromen-6-ol]: the “ER-alpha MCF7 HCS Sinf (%)” value was −96%.

`CC1=C(c2cc(F)ccc2C)C(c2ccc(OCCN3CC(CF)C3)cc2)Oc2ccc(O)cc21` (centres unmarked) [Example 7, 3-(5-Fluoro-2-methylphenyl)-2-(4-(2-(3-(fluoromethyl)azetidin-1-yl)ethoxy)phenyl)-4-methyl-2H-chromen-6-ol]: the “ER-alpha MCF7 HCS Sinf (%)” value is listed as −99%.

Consider `CC1=C(c2ccc(S(C)(=O)=O)cc2)C(c2ccc(OCCN3CC(CF)C3)cc2)Oc2ccc(O)cc21` (centres unmarked) [Example 8, 2-(4-(2-(3-(fluoromethyl)azetidin-1-yl)ethoxy)phenyl)-4-methyl-3-(4-(methylsulfonyl)phenyl)-2H-chromen-6-ol], for which the “ER-alpha MCF7 HCS Sinf (%)” value is −90%.

As to `CC1=C(c2cccc(S(C)(=O)=O)c2)C(c2ccc(OCCN3CC(CF)C3)cc2)Oc2ccc(O)cc21` (centres unmarked) [Example 9, 2-(4-(2-(3-(Fluoromethyl)azetidin-1-yl)ethoxy)phenyl)-4-methyl-3-(3-(methylsulfonyl)phenyl)-2H-chromen-6-ol], the “ER-alpha MCF7 HCS Sinf (%)” value is listed as −99%.

On to `CC(=O)Nc1cccc(C2=C(C)c3cc(O)ccc3OC2c2ccc(OCCN3CC(CF)C3)cc2)c1` (centres unmarked) [Example 10, N-(3-(2-(4-(2-(3-(Fluoromethyl)azetidin-1-yl)ethoxy)phenyl)-6-hydroxy-4-methyl-2H-chromen-3-yl)phenyl)acetamide], for which the “ER-alpha MCF7 HCS Sinf (%)” value was −94%.

With `CC(=O)Nc1ccc(C2=C(C)c3cc(O)ccc3OC2c2ccc(OCCN3CC(CF)C3)cc2)cc1` (centres unmarked) [Example 11, N-(4-(2-(4-(2-(3-(Fluoromethyl)azetidin-1-yl)ethoxy)phenyl)-6-hydroxy-4-methyl-2H-chromen-3-yl)phenyl)acetamide], the “ER-alpha MCF7 HCS Sinf (%)” value is −93%.

In the case of `CC1=C(c2cccc(NS(C)(=O)=O)c2)C(c2ccc(OCCN3CC(CF)C3)cc2)Oc2ccc(O)cc21` (centres unmarked) [Example 12, N-(3-(2-(4-(2-(3-(Fluoromethyl)azetidin-1-yl)ethoxy)phenyl)-6-hydroxy-4-methyl-2H-chromen-3-yl)phenyl)methanesulfonamide], the “ER-alpha MCF7 HCS Sinf (%)” value is −93%.

As to `CC1=C(c2ccc(NS(C)(=O)=O)cc2)C(c2ccc(OCCN3CC(CF)C3)cc2)Oc2ccc(O)cc21` (centres unmarked) [Example 13, N-(4-(2-(4-(2-(3-(Fluoromethyl)azetidin-1-yl)ethoxy)phenyl)-6-hydroxy-4-methyl-2H-chromen-3-yl)phenyl)methanesulfonamide], the “ER-alpha MCF7 HCS Sinf (%)” value was −68%.

Turning to `CC1=C(c2cccc(C(N)=O)c2)C(c2ccc(OCCN3CC(CF)C3)cc2)Oc2ccc(O)cc21` (centres unmarked) [Example 14, 3-(2-(4-(2-(3-(Fluoromethyl)azetidin-1-yl)ethoxy)phenyl)-6-hydroxy-4-methyl-2H-chromen-3-yl)benzamide], the “ER-alpha MCF7 HCS Sinf (%)” value is on record as −97%.

With `CC1=C(c2ccc(C(N)=O)cc2)C(c2ccc(OCCN3CC(CF)C3)cc2)Oc2ccc(O)cc21` (centres unmarked) [Example 15, 4-(2-(4-(2-(3-(Fluoromethyl)azetidin-1-yl)ethoxy)phenyl)-6-hydroxy-4-methyl-2H-chromen-3-yl)benzamide], the “ER-alpha MCF7 HCS Sinf (%)” value is −99%.

`CC1=C(c2ccc(CO)cc2)C(c2ccc(OCCN3CC(CF)C3)cc2)Oc2ccc(O)cc21` (centres unmarked) [Example 16, 2-(4-(2-(3-(Fluoromethyl)azetidin-1-yl)ethoxy)phenyl)-3-(4-(hydroxymethyl)phenyl)-4-methyl-2H-chromen-6-ol]: the “ER-alpha MCF7 HCS Sinf (%)” value is reported as −99%.

For the molecule `CC1=C(c2cccc(CO)c2)C(c2ccc(OCCN3CC(CF)C3)cc2)Oc2ccc(O)cc21` (centres unmarked) [Example 17, 2-(4-(2-(3-(Fluoromethyl)azetidin-1-yl)ethoxy)phenyl)-3-(3-(hydroxymethyl)phenyl)-4-methyl-2H-chromen-6-ol], the “ER-alpha MCF7 HCS Sinf (%)” value is given as −101%.

Turning to `CC1=C(c2ccc(C#N)c(Cl)c2)C(c2ccc(OCCN3CC(CF)C3)cc2)Oc2ccc(O)cc21` (centres unmarked) [Example 18, 2-Chloro-4-(2-(4-(2-(3-(fluoromethyl)azetidin-1-yl)ethoxy)phenyl)-6-hydroxy-4-methyl-2H-chromen-3-yl)benzonitrile], the “ER-alpha MCF7 HCS Sinf (%)” value is −99%.

As to `CC1=C(c2cc(F)cc(F)c2)[C@@H](c2ccc(OCCN3CC(CF)C3)cc2)Oc2ccc(O)cc21` [Example 19, (R)- and (S)-3-(3,5-Difluorophenyl)-2-(4-(2-(3-(fluoromethyl)azetidin-1-yl)ethoxy)phenyl)-4-methyl-2H-chromen-6-ol], the “ER-alpha MCF7 HCS Sinf (%)” value was −50%.

For the molecule `CC1=C(c2cc(F)cc(F)c2)[C@H](c2ccc(OCCN3CC(CF)C3)cc2)Oc2ccc(O)cc21` [Example 20, (R)- and (S)-3-(3,5-Difluorophenyl)-2-(4-(2-(3-(fluoromethyl)azetidin-1-yl)ethoxy)phenyl)-4-methyl-2H-chromen-6-ol], the “ER-alpha MCF7 HCS Sinf (%)” value is recorded as −103%.

In the case of `CC1=C(c2cccc(O)c2)C(c2ccc(OCCN3CC(CF)C3)cc2)Oc2cc(Cl)c(O)cc21` (centres unmarked) [Example 26, 7-Chloro-2-(4-(2-(3-(fluoromethyl)azetidin-1-yl)ethoxy)phenyl)-3-(3-hydroxyphenyl)-4-methyl-2H-chromen-6-ol], the “ER-alpha MCF7 HCS Sinf (%)” value is −93%.

In the case of `CC1=C(c2ccc(F)cc2)C(c2ccc(OCCN3CC(CF)C3)cc2)Oc2cc(C)c(O)cc21` (centres unmarked) [Example 29, 2-{4-[2-(3-Fluoromethyl-azetidin-1-yl)-ethoxy]-phenyl}-3-(4-fluoro-phenyl)-4,7-dimethyl-2H-chromen-6-ol], the “ER-alpha MCF7 HCS Sinf (%)” value is −90%.

Consider `CC1=C(c2ccc(F)cc2)C(c2ccc(OCCN3CC(CF)C3)cc2)Oc2cc(C#N)c(O)cc21` (centres unmarked) [Example 30, 2-{4-[2-(3-Fluoromethyl-azetidin-1-yl)-ethoxy]-phenyl}-3-(4-fluorophenyl)-6-hydroxy-4-methyl-2H-chromene-7-carbonitrile], for which the “ER-alpha MCF7 HCS Sinf (%)” value was −92%.

In the case of `CC1=C(c2ccc(F)cc2Cl)C(c2ccc(OCCN3CC(CF)C3)cc2)Oc2ccc(O)cc21` (centres unmarked) [Example 32, 3-(2-chloro-4-fluoro-phenyl)-2-[4-[2-[3-(fluoromethyl)azetidin-1-yl]ethoxy]phenyl]-4-methyl-2H-chromen-6-ol], the “ER-alpha MCF7 HCS Sinf (%)” value is on record as −99%.

With `CC1=C(c2ccc(F)c(C#N)c2)C(c2ccc(OCCN3CC(CF)C3)cc2)Oc2ccc(O)cc21` (centres unmarked) [Example 33, 2-fluoro-5-[2-[4-[2-[3-(fluoromethyl)azetidin-1-yl]ethoxy]phenyl]-6-hydroxy-4-methyl-2H-chromen-3-yl]benzonitrile], the “ER-alpha MCF7 HCS Sinf (%)” value was −96%.

For the molecule `CC1=C(c2ccc(F)c(C#N)c2)[C@@H](c2ccc(OCCN3CC(CF)C3)cc2)Oc2ccc(O)cc21` [Example 34, (R)-2-fluoro-5-(2-(4-(2-(3-(fluoromethyl)azetidin-1-yl)ethoxy)phenyl)-6-hydroxy-4-methyl-2H-chromen-3-yl)benzonitrile], the “ER-alpha MCF7 HCS Sinf (%)” value was −88%.

Values taken from patent US20160175284A1, “ESTROGEN RECEPTOR MODULATORS AND USES THEREOF” (Genentech, Inc., priority 2014, published 2016).
